Earlier results on one molecule are cited in patent US20080317862A1, “Organic Compounds Comprising a Glycopyrrolium Salt” (priority 2005, published 2008).

The conditions of the data set: aerosol formulation for treating asthma, single administration of a metered dose.

As for `C[N+]1(C)CCC(OC(=O)C(O)(c2ccccc2)C2CCCC2)C1.[Br-]` (racemic) [glycopyrrolate, 3-[(cyclopentyl-hydroxyphenylacetyl)oxy]-1,1-dimethylpyrrolidinium bromide], the duration of bronchodilation entry was “up to 12 hours”.
